Measurements reported in patent US10377729B2, “Bis-furan derivatives as transthyretin (TTR) stabilizers and amyloid inhibitors for the treatment of familial amyloid polyneuropathy (FAP)” (BSIM Therapeutics, S.A., priority 2015, dated 2019).
“And” between values parts separate entries of the source, which are not always exact repeats. Identical values can stand only once. “Also recorded” adds a separate entry of the source. Like-named read-outs stand apart in the source and are kept apart here.

How the values were obtained:
[1] = biological target: recombinant human wild-type TTR (WT-TTR) (Homo sapiens (Human), UniProt P02766); conditions: for inhibition of amyloid fibril formation by TTR (in words): compounds at 2×, 1× and 0.5× of WT-TTR (3.6 μM), 72 hours, FIG. 5; for IC50: read-out: IC50 ± S.D. (concentration inhibiting TTR amyloid fibril formation by 50%), WT-TTR 3.6 μM, pH 4.4, 72 hours at 37° C., mean of at least 3 determinations; for IEI (inhibition efficiency index): IEI = (pIC50/MW) × 1000; for ILE (inhibition lipophilic efficiency): ILE = pIC50 − cLogP; for pIC50: negative logarithm of IC50 values
TTR V30M in human plasma = TTR V30M in human plasma (Homo sapiens (Human), UniProt P02766, V30M); experiment: Ex vivo TTR stability to dissociation assay (IEF, 4 M urea), plasma of heterozygotic V30M carriers; type: biochemical; conditions: plasmas of heterozygotic V30M carriers, 5 samples, IEF densitometry
Method: (§1) In an embodiment, the AT09-B00 compound was further tested ex vivo for its effect on the stability of human plasma TTR, using isoelectric focusing (IEF) under semi-denaturating conditions, i.e. in the presence of 4 M of urea—as described in this disclosure and in references. After plasma incubation with the test and reference compounds, TTR was isolated by PAGE and run on IEF. Bands corresponding to different TTR species were quantified and the tetramer to total protein ratio was determined. Under the experimental conditions used, TTR presented a typical pattern of two main bands, representing monomers (normal and oxidized forms), and several bands of lower isoelectric point (pI) indicating different forms of TTR tetramers.
(§2) In an embodiment, ex vivo TTR stability assays were conducted. Plasma TTR stability to dissociation is assessed by isoelectric focusing (IEF) in semi-denaturing conditions of human plasma samples as described in references. To perform the assay, 30 μL of human plasma are incubated with 5 μL of a 10 mM solution of test compounds and control compounds overnight at 4° C. followed by a 1 hour incubation at room temperature. The samples are then subjected to native PAGE and the gel band containing TTR is excised and applied to an IEF gel. […] The results are expressed as the average ratio of TTR tetramer for over total TTR over 5 repetitions±the standard deviation.

[2] = biological target: wild type TTR in human plasma (Homo sapiens (Human), UniProt P02766); experiment: Ex vivo TTR stability to dissociation assay (IEF, 4 M urea), plasma of normal subjects; type: biochemical; conditions: wild type TTR plasmas, 5 samples, IEF densitometry
Method: as §1, §2

[3] = tested on: TTR in human plasma (versus albumin and thyroxine-binding globulin); experiment: Ex vivo thyroxine ([125I]-T4) competition assay in human plasma (native PAGE); conditions: FIG. 9 A; for displacement of T4 from TTR / binding affinity for TTR (increasing order, in words): heterozygotic TTR V30M carriers and normal subjects, B
Method: After electrophoresis, the gels are dried, subjected to phosphor imaging (Typhoon 8600; […], Amersham Biosciences), and analysed using the ImageQuant program version 5.1. The intensity of the protein bands is compared. Two or three bands of different intensity should be visualized in plasma samples.
The results are analyzed by calculation of the TTR/total (TTR+ALB+TBG) ratio for each sample.

[4] = tested on: HepG2 cells (human liver carcinoma cell line); experiment: HepG2 cell viability assay (resazurin reduction); type: cell-based; conditions: for toxicity for HepG2 cells (in words): 72 hours, even at high doses, FIG. 10; for ID50: HepG2, 72 hours of incubation
Method: In an embodiment, the toxicity profiling in HepG2 cell lines was evaluated. […] Further toxicology is required if AT09 compounds are to be progressed to subsequent stages of development, not only to discard potential liver damage (or toxicity to other organs/tissues) but also given the long-term nature of treatments required by patients suffering from TTR amyloidoses (such as FAP), associated co-morbidities, or other TTR-related pathologies.
In an embodiment, the HepG2 cell viability assay was conducted as follows:
Adherent human hepatoma cells HepG2 were cultured in DMEM (Dulbecco's Modified Eagle's Medium) with 10% fetal bovine serum (FBS), 100 U/mL penicillin, 100 μg/mL streptomycin, and 1 mM sodium pyruvate. The cells were grown in 75 cm^2 culture flasks at 37° C., in an atmosphere of 5% CO2, and subcultured twice a week using a trypsin-EDTA solution.
Upon 3-4 days of growth and reaching approximately 90-95% confluence, HepG2 cells were plated in 96-well microplates with cell density of 12×10^3 cells/well and in a volume of 100 μL per well.
In this assay, the compounds were dissolved in pure DMSO and subsequently diluted in DMEM (in 9 intermediate compound concentrations). After adhesion of HepG2 cells to the microplates, 100 μL of each solution of intermediate compound concentration was added to each well (in quadruplicate). Positive controls with 10 wells containing only cells were tested; solvent controls resulted from the analyses of the three highest DMSO concentrations tested and were carried out in triplicate.
After addition of the compounds to the cells, the microplates were incubated for approximately 72 hours at 37° C. in an atmosphere of 5% CO2 until the cell viability assay was performed.
The viability of HepG2 cells in the presence of test compounds was assessed by the resazurin reduction assay. A stock solution of 0.01% resazurin in PBS is diluted 1:10 in incomplete RPMI 1640 cell medium (without addition of antibiotics and FBS). After washing the cells with 200 μL PBS containing Ca^2+ and Mg^2+, 200 μL of 0.001% resazurin were added to the wells. Blanks with incomplete RPMI 1640 medium alone were done in triplicate. The microplates were incubated at 37° C. and 5% CO2 for approximately 2-4 hours.
To quantify the reduction of resazurin, microplate absorbance readings were taken at two wavelengths, 540 nm (reduced form) and 630 nm (oxidized form), in a microplate spectrophotometer (BioTek Instruments, Inc.). The percentage of viable cells at each compound concentration was determined using the equation % viable cells=[(ε630 nm×Abs540 nm)−(ε540 nm×Abs630 nm)]/[(ε630 nm×Ctrl540 nm)−(ε540 nm×Ctrl630 nm)]
where ε is the molar extinction coefficient, Abs is the absorbance and Ctrl is the absorbance of the positive control (cells without compound).

WT-TTR = WT-TTR (Homo sapiens (Human), UniProt P02766); experiment: Isothermal titration calorimetry (ITC) with WT-TTR; conditions: 25° C., pH 7.2, 2% DMSO, model with two ligand-binding sites
Method: In an embodiment, Isothermal titration calorimetry (ITC) experiments were conducted to determine the binding constants of bis-furan compounds to TTR. […] An initial injection of 4 μL of titrant was followed by 28 regular injections of 10 μL until saturation of the titrated solution was reached. The heat associated with each injection was measured throughout time and calculated by integration of the area under the deflection of the measured peak, after baseline correction (i.e. subtraction of blank). Further details about the ITC experiments are provided herein.
The corresponding dissociation constants were calculated according to the equation given herein.
In an embodiment, the isothermal titration calorimetry (ITC) experiments were performed on a Malvern high precision VP-ITC titration calorimetry system (Malvern Instruments, Worcestershire, UK; previously from MicroCal). Compound stock solutions were prepared in pure DMSO. Both compound and WT-TTR dilutions were prepared in 20 mM sodium phosphate buffer, 150 mM sodium chloride and 2% DMSO, at pH 7.2. All solutions were filtered and degassed prior to use.
In an embodiment, in all titrations, the initial injection of 4 μL of titrant to the calorimetric cell was followed by 28 injections at regular intervals of 10 μL each, until saturation of the titrated solution was reached. […] The extent of binding was determined by direct measurement of the heat exchanged with the environment: the heat associated with each injection is proportional to the complex concentration and can be calculated by integrating the area under the deflection of the measured calorimetric signal. Data were analyzed with the Origin 7.0 software package from Malvern. A baseline correction was applied to each experiment by subtraction of data from injections of ligand solution into a buffer blank correlating to the heat of dilution of the ligand solution. For the calculation of the association constant (Ka), data analysis was performed according to a model of binding to a macromolecule with two ligand-binding sites, by non-linear regression. The reported dissociation constant (Kd) is the reciprocal of Ka, according to the equation ΔG=−RTInKa=RTInKd, where ΔG is the Gibbs free energy of binding, R is the gas constant and T is the temperature.

[5] = tested on: familial amyloid polyneuropathy (FAP) patients; conditions: 18-month phase-III clinical trial; cited from earlier work
AD/TTR+/− mice = conditions: cited from earlier work

Row | IC50 [1] | IEI (inhibition efficiency index) [1] | ILE (inhibition lipophilic efficiency) [1] | pIC50 [1] | Molecule | inhibition of amyloid fibril formation by TTR (in words) [1] | displacement of T4 from TTR / binding affinity for TTR (increasing order, in words) [3] | further results
1 | 2020 nM | 22.6 | 2.77 | 5.69 | Cc1c(C(=O)O)coc1/C=C/c1ccc(Cl)o1 [AT09-B00, (E)-5-(2-(5-chlorofuran-2-yl)vinyl)-4-methylfuran-3-carboxylic acid] | approaching the high levels of activity of 2OH—PCB80 | iododiflunisal<tafamidis<AT09-B00; also recorded: at least comparable to the current drug | tetramer to total protein ratio (TTR V30M in human plasma): 0.481; tetramer to total protein ratio [2]: 0.961; specificity for TTR versus TBG and albumin (in words) ([3]; band intensity): small difference in band intensity for TBG and albumin; toxicity for HepG2 cells (in words) [4]: relatively low toxicity for HepG2 cells; Kd (WT-TTR; read-out: Kd1): 3.5 nM; Kd (WT-TTR; read-out: Kd2): 357 nM
2 | 2490 nM | 22.3 | 2.99 | 5.60 | (E)-5-(2-(5-chlorofuran-2-yl)vinyl)-1-methylfuran-3-carboxylic acid [AT09-B06] | stronger inhibition | – | toxicity for HepG2 cells (in words) [4]: relatively low toxicity for HepG2 cells; Kd (WT-TTR; read-out: Kd1): 3.9 nM; Kd (WT-TTR; read-out: Kd2): 278 nM

Continued, molecule first:

Row | Molecule | IC50 [1] | IEI (inhibition efficiency index) [1] | ILE (inhibition lipophilic efficiency) [1] | pIC50 [1] | inhibition of amyloid fibril formation by TTR (in words) [1] | displacement of T4 from TTR / binding affinity for TTR (increasing order, in words) [3] | further results
3 | Cc1oc(CSCc2cc(C(=O)O)c(C)o2)cc1C(=O)O [AT09-A00, bis((3-carboxy-2-methyl-furan-5-yl)methyl)sulfane] | 7100 nM | – | – | – | lower inhibitory activity than tafamidis and thyroxine | – | –
4 | Oc1c(Cl)cc(-c2cc(Cl)c(O)c(Cl)c2)cc1Cl [Compound 2OH-PCB80, reference compound] | 1590 nM | 18.0 | 0.37 | 5.80 | – | – | ID50 [4]: 19.4 μg/mL and 60 μM
5 | CNC[C@H](O)[C@@H](O)[C@H](O)[C@H](O)CO.O=C(O)c1ccc2nc(-c3cc(Cl)cc(Cl)c3)oc2c1 [Tafamidis meglumine, N-methyl D-(2,3,4,5,6-pentahydroxy-hexyl)-ammonium; 2-(3,5-dichloro-phenyl)-benzoxazole-6-carboxylate] | – | – | – | – | – | – | FAP patients with improvement of symptoms [5]: approximately 60%
6 | O=C(O)c1ccc2nc(-c3cc(Cl)cc(Cl)c3)oc2c1 [Tafamidis] | – | – | – | – | – | iododiflunisal<tafamidis<AT09-B00 | FAP patients with improvement of symptoms [5]: approximately 60%; ID50 [4]: 76.1 μg/mL and 247 μM; ID50 ([4]; listed as tafamidis): more than 75 μg/mL
7 | O=C(O)c1cc(-c2ccc(F)cc2F)cc(I)c1O [iododiflunisal, reference compound] | – | – | – | – | – | iododiflunisal<tafamidis<AT09-B00 | tetramer to total protein ratio (TTR V30M in human plasma): 0.445; tetramer to total protein ratio [2]: 0.768; brain Abeta levels and deposition, cognitive function (AD/TTR+/− mice): decreased brain Aβ levels and deposition; also recorded: decreased brain Abeta levels and deposition
